# Read-outs that look alike come from different tables or passages of the source.
# Key:
# EGFR Del19/T790M/C797S = EGFR Del19/T790M/C797S (Homo sapiens, UniProt P00533, C797S/DEL746-750/T790M); assay: Biochemical EGFR kinase inhibition assay (Lance Ultra TR-FRET), triple mutant del19/T790M/C797S
# Summary of the method: (§1)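 In this biochemical assay, phosphorylation after a one-hour room-temperature reaction was detected with europium-labelled anti-phosphopeptide antibody at 2 nM final concentration.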
# EGFR L858R/T790M/C797S = EGFR L858R/T790M/C797S (Homo sapiens, UniProt P00533, C797S/L858R/T790M); assay: Biochemical EGFR kinase inhibition assay (Lance Ultra TR-FRET), triple mutant L858R/T790M/C797S
# Summary of the method: as §1
# EGFR Del19/C797S = EGFR Del19/C797S (Homo sapiens, UniProt P00533, C797S/DEL746-750); assay: Biochemical EGFR kinase inhibition assay (Lance Ultra TR-FRET), double mutant del19/C797S
# Summary of the method: as §1
# EGFR L858R/C797S = EGFR L858R/C797S (Homo sapiens, UniProt P00533, C797S/L858R); assay: Biochemical EGFR kinase inhibition assay (Lance Ultra TR-FRET), double mutant L858R/C797S
# Summary of the method: as §1
# EGFR wildtype (WT) = EGFR wildtype (WT) (Homo sapiens, UniProt P00533); assay: Biochemical EGFR kinase inhibition assay (Lance Ultra TR-FRET), wildtype
# Summary of the method: as §1
# [1] = IC50 Del19/T790M/C797S (nM), 100 μM ATP
# [2] = IC50 L858R/T790M/C797S (nM), 100 μM ATP
# [3] = IC50 Del19/C797S (nM), 100 μM ATP
# [4] = IC50 L858R/C797S (nM), 100 μM ATP
# [5] = Km ATP, read-out: IC50 Del19/T790M/C797S (nM), Km ATP
# [6] = Km ATP, read-out: IC50 L858R/T790M/C797S (nM), Km ATP
# [7] = Km ATP, read-out: IC50 Del19/C797S (nM), Km ATP
# [8] = Km ATP, read-out: IC50 L858R/C797S (nM), Km ATP
# [9] = Km ATP, read-out: IC50 WT (nM), Km ATP
# Sequence of EGFR Del19/C797S (P00533 with tags, fused parts or gaps DEL746-750/C797S): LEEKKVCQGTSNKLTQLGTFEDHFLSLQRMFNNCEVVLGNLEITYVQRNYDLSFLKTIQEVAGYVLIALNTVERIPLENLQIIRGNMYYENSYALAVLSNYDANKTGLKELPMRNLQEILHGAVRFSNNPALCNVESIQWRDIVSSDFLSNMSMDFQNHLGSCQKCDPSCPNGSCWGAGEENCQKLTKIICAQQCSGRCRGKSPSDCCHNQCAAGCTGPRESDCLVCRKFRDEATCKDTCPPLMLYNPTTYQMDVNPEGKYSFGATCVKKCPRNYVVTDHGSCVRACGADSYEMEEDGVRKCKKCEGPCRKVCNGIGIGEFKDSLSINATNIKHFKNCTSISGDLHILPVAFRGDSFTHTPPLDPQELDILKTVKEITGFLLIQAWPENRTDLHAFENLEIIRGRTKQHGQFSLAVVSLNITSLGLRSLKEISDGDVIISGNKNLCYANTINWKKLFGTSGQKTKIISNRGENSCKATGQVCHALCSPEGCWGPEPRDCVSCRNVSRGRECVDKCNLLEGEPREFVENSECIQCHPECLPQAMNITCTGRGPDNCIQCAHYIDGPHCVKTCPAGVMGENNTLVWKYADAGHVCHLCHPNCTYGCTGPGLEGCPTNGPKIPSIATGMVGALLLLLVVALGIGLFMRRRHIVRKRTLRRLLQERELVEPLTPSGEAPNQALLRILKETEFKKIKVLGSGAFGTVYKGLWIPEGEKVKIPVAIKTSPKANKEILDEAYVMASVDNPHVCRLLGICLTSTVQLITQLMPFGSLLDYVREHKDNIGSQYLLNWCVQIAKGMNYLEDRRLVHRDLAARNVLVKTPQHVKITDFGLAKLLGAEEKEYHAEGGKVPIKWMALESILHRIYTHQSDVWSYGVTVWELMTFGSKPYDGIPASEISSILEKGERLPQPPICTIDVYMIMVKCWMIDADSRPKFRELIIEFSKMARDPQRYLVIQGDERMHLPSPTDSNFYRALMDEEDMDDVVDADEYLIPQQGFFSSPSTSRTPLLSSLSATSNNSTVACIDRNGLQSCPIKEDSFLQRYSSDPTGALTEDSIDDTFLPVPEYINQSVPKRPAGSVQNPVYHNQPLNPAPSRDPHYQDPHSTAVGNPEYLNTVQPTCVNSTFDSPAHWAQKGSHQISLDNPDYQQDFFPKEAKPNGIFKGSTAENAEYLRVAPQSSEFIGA
# Sequence of EGFR Del19/T790M/C797S (P00533 with tags, fused parts or gaps DEL746-750/T790M/C797S): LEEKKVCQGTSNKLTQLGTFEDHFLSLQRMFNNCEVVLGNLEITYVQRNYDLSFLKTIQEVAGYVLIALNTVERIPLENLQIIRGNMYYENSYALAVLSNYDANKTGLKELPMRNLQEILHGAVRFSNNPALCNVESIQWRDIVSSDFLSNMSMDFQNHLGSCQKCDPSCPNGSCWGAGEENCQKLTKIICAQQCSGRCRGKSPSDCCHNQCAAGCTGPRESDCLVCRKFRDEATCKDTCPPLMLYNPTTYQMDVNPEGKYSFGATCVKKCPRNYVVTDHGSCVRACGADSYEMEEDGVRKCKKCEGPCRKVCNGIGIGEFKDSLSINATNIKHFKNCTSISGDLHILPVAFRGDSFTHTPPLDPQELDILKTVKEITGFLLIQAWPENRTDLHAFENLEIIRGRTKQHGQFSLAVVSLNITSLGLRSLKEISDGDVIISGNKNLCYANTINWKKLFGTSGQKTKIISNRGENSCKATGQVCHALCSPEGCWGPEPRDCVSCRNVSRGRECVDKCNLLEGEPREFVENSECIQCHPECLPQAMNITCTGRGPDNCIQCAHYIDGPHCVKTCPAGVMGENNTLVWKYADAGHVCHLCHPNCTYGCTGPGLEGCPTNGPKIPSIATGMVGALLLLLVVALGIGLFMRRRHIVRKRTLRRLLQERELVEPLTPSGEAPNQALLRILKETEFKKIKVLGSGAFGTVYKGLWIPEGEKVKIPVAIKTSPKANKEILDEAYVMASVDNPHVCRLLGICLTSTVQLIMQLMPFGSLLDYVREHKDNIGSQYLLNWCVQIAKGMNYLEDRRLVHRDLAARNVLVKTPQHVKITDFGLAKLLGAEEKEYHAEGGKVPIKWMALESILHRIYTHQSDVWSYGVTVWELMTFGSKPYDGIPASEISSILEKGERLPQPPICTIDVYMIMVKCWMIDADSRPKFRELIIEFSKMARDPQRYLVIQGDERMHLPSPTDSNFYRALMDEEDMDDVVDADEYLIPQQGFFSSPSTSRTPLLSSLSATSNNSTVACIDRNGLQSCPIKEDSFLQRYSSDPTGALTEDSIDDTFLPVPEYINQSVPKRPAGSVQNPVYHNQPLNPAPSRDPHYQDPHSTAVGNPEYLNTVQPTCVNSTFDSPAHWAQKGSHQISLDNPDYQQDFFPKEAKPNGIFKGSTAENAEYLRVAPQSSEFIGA
# Sequence of EGFR L858R/T790M/C797S (P00533 25-1210 T790M/C797S/L858R): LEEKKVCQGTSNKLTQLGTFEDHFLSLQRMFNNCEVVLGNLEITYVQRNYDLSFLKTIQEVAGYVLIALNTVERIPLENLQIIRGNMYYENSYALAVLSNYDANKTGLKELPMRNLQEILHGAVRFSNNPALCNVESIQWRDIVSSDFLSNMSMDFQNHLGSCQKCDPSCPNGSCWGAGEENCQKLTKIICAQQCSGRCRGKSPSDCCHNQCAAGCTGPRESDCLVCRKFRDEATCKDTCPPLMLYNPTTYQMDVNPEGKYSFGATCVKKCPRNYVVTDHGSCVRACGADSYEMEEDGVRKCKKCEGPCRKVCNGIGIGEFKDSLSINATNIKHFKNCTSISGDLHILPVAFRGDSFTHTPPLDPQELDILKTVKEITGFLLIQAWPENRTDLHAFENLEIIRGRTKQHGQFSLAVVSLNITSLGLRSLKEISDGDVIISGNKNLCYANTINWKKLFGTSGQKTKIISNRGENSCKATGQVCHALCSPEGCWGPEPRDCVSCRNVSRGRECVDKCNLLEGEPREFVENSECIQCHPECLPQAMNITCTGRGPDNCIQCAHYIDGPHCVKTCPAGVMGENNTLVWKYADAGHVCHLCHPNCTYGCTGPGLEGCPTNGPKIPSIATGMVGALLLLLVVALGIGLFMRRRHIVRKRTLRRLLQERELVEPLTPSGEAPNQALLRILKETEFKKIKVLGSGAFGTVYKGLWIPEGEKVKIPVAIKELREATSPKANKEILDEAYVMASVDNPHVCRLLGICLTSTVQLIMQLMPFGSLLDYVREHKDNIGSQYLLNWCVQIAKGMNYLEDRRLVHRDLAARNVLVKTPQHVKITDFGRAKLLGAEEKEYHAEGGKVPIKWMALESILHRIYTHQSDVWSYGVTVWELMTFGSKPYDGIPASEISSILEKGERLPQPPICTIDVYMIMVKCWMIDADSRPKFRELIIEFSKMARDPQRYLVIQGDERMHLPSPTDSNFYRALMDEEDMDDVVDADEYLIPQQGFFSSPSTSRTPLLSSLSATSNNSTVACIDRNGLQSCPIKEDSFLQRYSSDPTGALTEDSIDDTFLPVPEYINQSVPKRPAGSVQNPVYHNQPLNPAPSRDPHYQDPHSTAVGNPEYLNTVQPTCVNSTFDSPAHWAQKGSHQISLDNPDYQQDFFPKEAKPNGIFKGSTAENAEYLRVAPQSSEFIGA
# Sequence of EGFR wildtype (WT) (P00533 25-1210): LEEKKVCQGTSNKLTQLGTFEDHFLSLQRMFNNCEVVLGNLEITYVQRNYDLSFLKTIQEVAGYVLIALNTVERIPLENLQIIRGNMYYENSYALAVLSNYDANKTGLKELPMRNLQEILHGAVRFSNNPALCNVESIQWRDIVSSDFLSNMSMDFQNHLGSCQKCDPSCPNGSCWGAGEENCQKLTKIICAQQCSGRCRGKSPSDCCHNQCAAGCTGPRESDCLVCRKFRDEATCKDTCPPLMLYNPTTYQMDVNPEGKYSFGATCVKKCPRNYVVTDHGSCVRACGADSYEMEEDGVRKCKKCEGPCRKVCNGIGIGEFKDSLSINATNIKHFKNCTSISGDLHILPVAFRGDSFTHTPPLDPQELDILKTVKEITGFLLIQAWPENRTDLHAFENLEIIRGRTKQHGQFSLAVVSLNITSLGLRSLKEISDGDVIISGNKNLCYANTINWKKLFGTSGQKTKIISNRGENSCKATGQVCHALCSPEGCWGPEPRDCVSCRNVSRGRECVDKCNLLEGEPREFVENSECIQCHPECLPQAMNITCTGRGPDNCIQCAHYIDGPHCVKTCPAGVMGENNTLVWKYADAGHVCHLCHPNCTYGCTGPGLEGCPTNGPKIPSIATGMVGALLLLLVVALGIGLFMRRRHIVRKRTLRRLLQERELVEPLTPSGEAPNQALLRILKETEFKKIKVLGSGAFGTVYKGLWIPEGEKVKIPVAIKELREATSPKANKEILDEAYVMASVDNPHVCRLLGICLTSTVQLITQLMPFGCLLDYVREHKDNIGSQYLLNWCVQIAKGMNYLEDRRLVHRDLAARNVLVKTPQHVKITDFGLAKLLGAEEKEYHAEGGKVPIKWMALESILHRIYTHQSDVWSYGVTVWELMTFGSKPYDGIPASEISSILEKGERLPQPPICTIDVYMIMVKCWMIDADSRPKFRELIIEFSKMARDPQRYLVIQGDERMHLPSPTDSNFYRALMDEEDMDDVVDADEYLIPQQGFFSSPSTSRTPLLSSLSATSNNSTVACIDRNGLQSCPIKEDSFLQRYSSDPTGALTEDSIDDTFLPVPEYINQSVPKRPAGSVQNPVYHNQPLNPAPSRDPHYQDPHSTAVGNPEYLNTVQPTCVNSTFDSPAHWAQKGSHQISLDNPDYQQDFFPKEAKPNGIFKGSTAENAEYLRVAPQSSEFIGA
Structure (SMILES),IC50 (EGFR Del19/T790M/C797S; [1]),IC50 (EGFR L858R/T790M/C797S; [2]),IC50 (EGFR Del19/C797S; [3]),IC50 (EGFR L858R/C797S; [4]),"IC50 (EGFR wildtype (WT); IC50 WT (nM), 100 μM ATP)",IC50 (EGFR Del19/T790M/C797S; [5]),IC50 (EGFR L858R/T790M/C797S; [6]),IC50 (EGFR Del19/C797S; [7]),IC50 (EGFR L858R/C797S; [8]),IC50 (EGFR wildtype (WT); [9])
"CN1CCN(Cc2ccc(C#Cc3cnc(Nc4ccnc(-c5cnn(S(=O)(=O)C6CC6)c5)n4)cc3NC[C@H]3CC[C@H](O)CC3)cc2)CC1 [Example 361, (1 r,4r)-4-(((2-((2-(1-(Cyclopropylsulfonyl)-1H-pyrazol-4-yl)pyrimidin-4-yl)amino)-5-((4-((4-methylpiperazin-1-yl)methyl)phenyl)ethynyl)pyridin-4-yl)amino)methyl)cyclohexan-1-ol]",0.7 nM,1.5 nM,4.3 nM,468 nM,> 10000 nM,–,–,–,–,–
"CN1CCN(Cc2ccc(C#Cc3cnc(Nc4ccnc(-c5cnn(S(=O)(=O)C6CC6)c5)n4)cc3N[C@H]3CC[C@]4(CCC(=O)N4)CC3)cc2)CC1 [Example 362, (5s,8s)-8-((2-((2-(1-(Cyclopropylsulfonyl)-1H-pyrazol-4-yl)pyrimidin-4-yl)amino)-5-((4-((4-methylpiperazin-1-yl)methyl)phenyl)ethynyl)pyridin-4-yl)amino)-1-azaspiro[4.5]decan-2-one]",0.7 nM,0.6 nM,1.7 nM,3.2 nM,4900 nM,0.5 nM,0.1 nM,1.1 nM,0.9 nM,10.7 nM
"CN1CCN(Cc2ccc(C#Cc3cnc(Nc4ccnc(-c5cnn(S(=O)(=O)C6CC6)c5)n4)cc3NC[C@H]3CC[C@](C)(O)CC3)cc2)CC1 [Example 363, (1r,4r)-4-(((2-((2-(1-(Cyclopropylsulfonyl)-1H-pyrazol-4-yl)pyrimidin-4-yl)amino)-5-((4-((4-methylpiperazin-1-yl)methyl)phenyl)ethynyl)pyridin-4-yl)amino)methyl)-1-methylcyclohexan-1-ol]",1.2 nM,2.4 nM,8.2 nM,94.9 nM,> 10000 nM,–,–,–,–,–
"CC1(O)CCN(c2cc(Nc3ccnc(-c4cnn(S(=O)(=O)C5CC5)c4)n3)ncc2C#Cc2ncc(CN3CCOCC3)cn2)CC1 [Example 364, 1-(2-((2-(1-(Cyclopropylsulfonyl)-1H-pyrazol-4-yl)pyrimidin-4-yl)amino)-5-((5-(morpholinomethyl)pyrimidin-2-yl)ethynyl)pyridin-4-yl)-4-methylpiperidin-4-ol]",0.3 nM,0.6 nM,1.3 nM,12.9 nM,2530 nM,0.2 nM,0.1 nM,1.4 nM,2.1 nM,7.5 nM
"COC1(O)CCN(c2cc(Nc3ccnc(-c4cnn(S(=O)(=O)C5CC5)c4)n3)ncc2C#Cc2ncc(CN3CCOCC3)cn2)CC1 [Example 365, 1-(2-((2-(1-(Cyclopropylsulfonyl)-1H-pyrazol-4-yl)pyrimidin-4-yl)amino)-5-((5-(morpholinomethyl)pyrimidin-2-yl)ethynyl)pyridin-4-yl)-4-methoxypiperidin-4-ol]",0.7 nM,1.3 nM,3.5 nM,46.6 nM,> 10000 nM,0.4 nM,0.1 nM,3.3 nM,3.9 nM,10.5 nM
"O=S(=O)(C1CC1)n1cc(-c2nccc(Nc3cc(N4CCC5(CCCO5)CC4)c(C#Cc4ncc(CN5CCOCC5)cn4)cn3)n2)cn1 [Example 366, 2-(1-(Cyclopropylsulfonyl)-1H-pyrazol-4-yl)-N-(5-((5-(morpholinomethyl)pyrimidin-2-yl)ethynyl)-4-(1-oxa-8-azaspiro[4.5]decan-8-yl)pyridin-2-yl)pyrimidin-4-amine]",0.5 nM,1.1 nM,4.4 nM,16.7 nM,> 10000 nM,0.3 nM,0.1 nM,2.5 nM,2.9 nM,7.2 nM
"O=S(=O)(C1CC1)n1cc(-c2nccc(Nc3cc(N4CCC5(CCO5)CC4)c(C#Cc4ncc(CN5CCOCC5)cn4)cn3)n2)cn1 [Example 367, 2-(1-(Cyclopropylsulfonyl)-1H-pyrazol-4-yl)-N-(5-((5-(morpholinomethyl)pyrimidin-2-yl)ethynyl)-4-(1-oxa-7-azaspiro[3.5]nonan-7-yl)pyridin-2-yl)pyrimidin-4-amine]",0.4 nM,1.2 nM,3.5 nM,25.6 nM,> 10000 nM,0.3 nM,0.1 nM,1.6 nM,3.9 nM,7.6 nM
"CN1CCN(Cc2ccc(C#Cc3cnc(Nc4ccnc(-c5cnn(S(=O)(=O)C6CC6)c5)n4)cc3N3CCC(C)(O)CC3)cc2)CC1 [Example 368, 1-(2-((2-(1-(Cyclopropylsulfonyl)-1H-pyrazol-4-yl)pyrimidin-4-yl)amino)-5-((4-((4-methylpiperazin-1-yl)methyl)phenyl)ethynyl)pyridin-4-yl)-4-methylpiperidin-4-ol]",0.4 nM,0.2 nM,0.7 nM,1.4 nM,197 nM,0.4 nM,0.1 nM,0.6 nM,0.7 nM,0.8 nM
"COC1(O)CCN(c2cc(Nc3ccnc(-c4cnn(S(=O)(=O)C5CC5)c4)n3)ncc2C#Cc2ccc(CN3CCN(C)CC3)cc2)CC1 [Example 369, 1-(2-((2-(1-(Cyclopropylsulfonyl)-1H-pyrazol-4-yl)pyrimidin-4-yl)amino)-5-((4-((4-methylpiperazin-1-yl)methyl)phenyl)ethynyl)pyridin-4-yl)-4-methoxypiperidin-4-ol]",0.4 nM,0.4 nM,2 nM,6.4 nM,1200 nM,0.9 nM,0.3 nM,1.9 nM,2.4 nM,3.1 nM
"CN1CCN(Cc2ccc(C#Cc3cnc(Nc4ccnc(-c5cnn(S(=O)(=O)C6CC6)c5)n4)cc3N3CCC4(CCO4)CC3)cc2)CC1 [Example 370, 2-(1-(Cyclopropylsulfonyl)-1H-pyrazol-4-yl)-N-(5-((4-((4-methylpiperazin-1-yl)methyl)phenyl)ethynyl)-4-(1-oxa-7-azaspiro[3.5]nonan-7-yl)pyridin-2-yl)pyrimidin-4-amine]",0.3 nM,0.8 nM,0.9 nM,5.1 nM,> 10000 nM,0.3 nM,0.1 nM,0.9 nM,1.4 nM,1.9 nM
"COC1(O)CCN(c2cc(Nc3ccnc(-c4cnn(S(=O)(=O)C5CC5)c4)n3)ncc2C#CC2CCN(C)C2)CC1 (stereo not shown) [Example 371, 1-(2-((2-(1-(Cyclopropylsulfonyl)-1H-pyrazol-4-yl)pyrimidin-4-yl)amino)-5-((1-methylpyrrolidin-3-yl)ethynyl)pyridin-4-yl)-4-methoxypiperidin-4-ol]",0.3 nM,0.4 nM,2.5 nM,53.2 nM,3730 nM,0.3 nM,0.1 nM,1.5 nM,3.3 nM,9.4 nM
